Measured values taken from ChEMBL document CHEMBL1201862, “PubChem BioAssay data set” (2004).
Each block holds one compound with its values, some of them ahead of it. Active and inactive are the calls of the source.

Experiments:
Assay type in all cases: functional
[1] = nonselective inhibitors of cellular cAMP signaling, dose response, counter-screen for MC4R biased antagonist project, cell-based, TR-FRET cAMP detection (AID 602305);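 also: U2OS cells stimulated with forskolin near its EC80 as the cAMP inducer; potency is for inhibition of forskolin-stimulated cAMP signaling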
Melanocortin receptor 4 = Melanocortin receptor 4 (Homo sapiens, UniProt P32245); test: MC4R antagonist potency on cAMP, dose response, cell-based, TR-FRET, biased antagonists (AID 602298);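 also: antagonist potency against agonist-stimulated cAMP production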
[2] = target: Protein disulfide-isomerase (Homo sapiens, UniProt P07237); test: PDI inhibitors, insulin aggregation turbidity, dose response, biochemical, absorbance, cherry-picked samples (AID 602350)
[3] = Late-stage luminescence-based cell-based dose response assay to identify antagonists of the G-protein coupled receptor 7 (GPR7): Cytotoxicity assay. [Related pubchem assays (depositor defined):AID1861, AID1880, AID1952, AID2148, AID2251, AID2257, AID485339]
[4] = Late-stage results from the probe development effort to identify antagonists of the G-protein coupled receptor 7 (GPR7): luminescence-based cell-based dose response counterscreen assay to determine cytotoxicity of antagonist compounds Set 2.
[5] = target: Melanin-concentrating hormone receptor 1 (Homo sapiens, UniProt Q99705); test: Late-stage fluorescence-based counterscreen for antagonists of the G-protein coupled receptor 7 (GPR7): cell-based dose response assay to identify antagonists of the melanin-concentrating hormone receptor 1 (MCHR1). [Related pubchem assays (depositor defined):AID1861, AID1880, AID1952, AID2148, AID2251, AID2257, AID485339];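 also: stimulated with 30 nM MCH peptide agonist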
[6] = target: Dual specificity protein kinase CLK4 (Homo sapiens, UniProt Q9HAZ1)
Dual specificity protein kinase CLK4, sequence (Q9HAZ1 whole entry): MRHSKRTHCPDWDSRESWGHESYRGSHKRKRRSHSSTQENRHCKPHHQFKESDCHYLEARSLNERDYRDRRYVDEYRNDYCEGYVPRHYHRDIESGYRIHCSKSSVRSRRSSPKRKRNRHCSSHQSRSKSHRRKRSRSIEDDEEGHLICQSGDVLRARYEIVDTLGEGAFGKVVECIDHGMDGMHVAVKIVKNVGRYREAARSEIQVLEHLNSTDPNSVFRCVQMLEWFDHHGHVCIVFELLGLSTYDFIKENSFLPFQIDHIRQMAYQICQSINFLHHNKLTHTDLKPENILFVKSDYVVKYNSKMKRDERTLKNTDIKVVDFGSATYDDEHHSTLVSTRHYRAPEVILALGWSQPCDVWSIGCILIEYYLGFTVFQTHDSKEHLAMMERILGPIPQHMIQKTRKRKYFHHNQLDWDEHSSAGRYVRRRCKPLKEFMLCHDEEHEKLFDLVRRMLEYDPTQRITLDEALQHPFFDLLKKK

[7] = target: Cyclin-dependent kinase 9 (Homo sapiens, UniProt P50750);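 also: value from the CDK9 entry of a kinome-spanning kinase panel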
[8] = target: Cyclin-dependent kinase 8 (Homo sapiens, UniProt P49336); test: Navigating the Kinome. Panel member name: CDK8
[9] = target: Proto-oncogene tyrosine-protein kinase receptor Ret (Homo sapiens, UniProt P07949);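 also: measured within a kinome-wide profiling panel, RET as the panel member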
Proto-oncogene tyrosine-protein kinase receptor Ret, sequence (P07949 whole entry): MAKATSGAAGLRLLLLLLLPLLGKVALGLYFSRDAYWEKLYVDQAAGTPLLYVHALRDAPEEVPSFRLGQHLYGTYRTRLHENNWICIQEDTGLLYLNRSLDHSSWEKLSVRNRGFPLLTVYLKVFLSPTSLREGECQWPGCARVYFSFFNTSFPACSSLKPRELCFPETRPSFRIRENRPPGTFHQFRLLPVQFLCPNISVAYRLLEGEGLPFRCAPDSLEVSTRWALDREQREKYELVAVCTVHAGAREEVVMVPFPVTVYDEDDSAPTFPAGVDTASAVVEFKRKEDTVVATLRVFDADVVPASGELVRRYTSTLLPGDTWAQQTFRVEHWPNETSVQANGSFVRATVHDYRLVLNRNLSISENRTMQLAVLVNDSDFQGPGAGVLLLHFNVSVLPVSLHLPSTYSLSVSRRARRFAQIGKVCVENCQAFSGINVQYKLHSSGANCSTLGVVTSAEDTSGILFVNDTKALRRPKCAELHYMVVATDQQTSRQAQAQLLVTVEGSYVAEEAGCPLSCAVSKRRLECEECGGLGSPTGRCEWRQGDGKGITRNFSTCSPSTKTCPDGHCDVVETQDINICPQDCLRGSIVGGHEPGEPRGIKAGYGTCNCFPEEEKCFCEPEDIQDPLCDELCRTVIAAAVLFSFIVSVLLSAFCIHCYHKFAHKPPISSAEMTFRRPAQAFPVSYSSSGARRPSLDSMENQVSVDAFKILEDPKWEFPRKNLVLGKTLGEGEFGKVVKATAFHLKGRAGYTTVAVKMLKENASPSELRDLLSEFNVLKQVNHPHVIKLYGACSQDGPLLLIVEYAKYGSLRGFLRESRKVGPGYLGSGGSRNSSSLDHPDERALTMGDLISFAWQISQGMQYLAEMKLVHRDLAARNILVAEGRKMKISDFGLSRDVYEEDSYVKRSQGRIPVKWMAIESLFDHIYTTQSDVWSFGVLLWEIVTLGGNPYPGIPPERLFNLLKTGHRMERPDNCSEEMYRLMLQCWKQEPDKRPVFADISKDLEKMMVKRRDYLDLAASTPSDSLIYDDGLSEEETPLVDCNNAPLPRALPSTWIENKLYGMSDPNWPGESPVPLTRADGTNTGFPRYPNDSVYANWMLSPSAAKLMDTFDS

Focal adhesion kinase 1 = Focal adhesion kinase 1 (Homo sapiens, UniProt Q05397);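 also: measured as one member of a kinome panel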
[10] = target: Dual specificity tyrosine-phosphorylation-regulated kinase 1A (Homo sapiens, UniProt Q13627);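 also: measured against DYRK1A as one member of a broad kinome profiling panel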
[11] = target: Death-associated protein kinase 3 (Homo sapiens, UniProt O43293);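 also: measured as one member of a kinome-wide profiling panel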
[12] = target: Vascular endothelial growth factor receptor 2 (Homo sapiens, UniProt P35968)
Vascular endothelial growth factor receptor 2, sequence (P35968 whole entry): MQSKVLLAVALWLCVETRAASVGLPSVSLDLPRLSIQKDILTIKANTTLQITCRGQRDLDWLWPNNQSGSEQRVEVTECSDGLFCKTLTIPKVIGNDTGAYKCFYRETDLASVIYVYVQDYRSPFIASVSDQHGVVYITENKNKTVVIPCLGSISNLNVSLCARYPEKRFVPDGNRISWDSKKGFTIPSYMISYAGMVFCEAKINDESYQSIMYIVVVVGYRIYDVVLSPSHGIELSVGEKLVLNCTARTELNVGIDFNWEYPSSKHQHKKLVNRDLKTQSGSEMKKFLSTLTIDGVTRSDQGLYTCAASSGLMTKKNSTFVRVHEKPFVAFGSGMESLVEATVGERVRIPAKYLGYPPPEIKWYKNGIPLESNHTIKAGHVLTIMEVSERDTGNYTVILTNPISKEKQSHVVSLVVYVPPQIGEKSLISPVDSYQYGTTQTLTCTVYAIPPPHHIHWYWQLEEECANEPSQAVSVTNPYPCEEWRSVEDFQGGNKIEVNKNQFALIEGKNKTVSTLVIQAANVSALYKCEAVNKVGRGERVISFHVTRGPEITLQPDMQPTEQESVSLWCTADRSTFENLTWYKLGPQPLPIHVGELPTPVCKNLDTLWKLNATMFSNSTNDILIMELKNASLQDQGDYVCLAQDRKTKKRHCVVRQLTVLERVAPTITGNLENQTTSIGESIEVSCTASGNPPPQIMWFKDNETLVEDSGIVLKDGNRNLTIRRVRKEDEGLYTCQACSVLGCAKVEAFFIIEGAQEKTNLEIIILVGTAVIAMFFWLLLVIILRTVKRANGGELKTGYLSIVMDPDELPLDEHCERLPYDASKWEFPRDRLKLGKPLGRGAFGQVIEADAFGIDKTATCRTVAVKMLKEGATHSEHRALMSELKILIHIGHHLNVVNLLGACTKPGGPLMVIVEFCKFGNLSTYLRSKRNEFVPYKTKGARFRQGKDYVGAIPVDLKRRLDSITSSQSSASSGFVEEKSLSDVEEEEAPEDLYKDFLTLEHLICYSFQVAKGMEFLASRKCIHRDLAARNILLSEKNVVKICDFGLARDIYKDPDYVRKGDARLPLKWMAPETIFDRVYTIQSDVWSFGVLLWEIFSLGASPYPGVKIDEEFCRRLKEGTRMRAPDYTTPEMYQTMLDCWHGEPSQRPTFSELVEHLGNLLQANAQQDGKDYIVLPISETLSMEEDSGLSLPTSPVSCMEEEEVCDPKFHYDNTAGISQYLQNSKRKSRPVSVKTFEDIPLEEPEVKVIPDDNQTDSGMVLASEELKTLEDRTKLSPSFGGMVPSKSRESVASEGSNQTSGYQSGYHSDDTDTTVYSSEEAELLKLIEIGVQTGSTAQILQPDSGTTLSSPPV

[13] = target: Cyclin-dependent kinase 19 (Homo sapiens, UniProt Q9BWU1); test: Navigating the Kinome. Panel member name: CDC2L6
[14] = target: cAMP-dependent protein kinase catalytic subunit alpha (Homo sapiens, UniProt P17612)
[15] = target: Glycogen synthase kinase-3 alpha (Homo sapiens, UniProt P49840);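 also: GSK3A result taken from a broad kinome-wide kinase panel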
[16] = target: Glycogen synthase kinase-3 beta (Homo sapiens, UniProt P49841);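 also: value comes from a broad kinome profiling panel, with GSK3B as the panel member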
Glycogen synthase kinase-3 beta, sequence (P49841 whole entry): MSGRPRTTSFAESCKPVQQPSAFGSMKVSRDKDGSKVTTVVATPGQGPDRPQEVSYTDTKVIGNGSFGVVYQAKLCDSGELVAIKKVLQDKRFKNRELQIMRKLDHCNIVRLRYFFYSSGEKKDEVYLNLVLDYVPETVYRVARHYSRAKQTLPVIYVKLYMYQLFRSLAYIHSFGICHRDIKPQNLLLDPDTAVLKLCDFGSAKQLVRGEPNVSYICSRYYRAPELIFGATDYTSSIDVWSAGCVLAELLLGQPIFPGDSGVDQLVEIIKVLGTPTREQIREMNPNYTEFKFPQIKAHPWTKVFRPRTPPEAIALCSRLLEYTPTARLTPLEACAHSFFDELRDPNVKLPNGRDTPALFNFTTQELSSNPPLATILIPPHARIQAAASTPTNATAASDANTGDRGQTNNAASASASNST

[17] = target: Dual specificity tyrosine-phosphorylation-regulated kinase 1B (Homo sapiens, UniProt Q9Y463); test: Navigating the Kinome. Panel member name: DYRK1B
Activated CDC42 kinase 1 = Activated CDC42 kinase 1 (Homo sapiens, UniProt Q07912); test: Navigating the Kinome. Panel member name: ACK1
[18] = target: Macrophage colony-stimulating factor 1 receptor (Homo sapiens, UniProt P07333);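 also: value comes from the Navigating the Kinome screening panel, CSF1R member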
Aurora kinase A = Aurora kinase A (Homo sapiens, UniProt O14965);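 also: value from the Navigating the Kinome kinase panel profiling, panel entry STK6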
[19] = target: Cyclin-dependent kinase 5 (Homo sapiens, UniProt Q00535);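 also: CDK5 measured as one member of a kinase profiling panel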
[20] = target: Protein kinase C theta type (Homo sapiens, UniProt Q04759); test: Navigating the Kinome. Panel member name: PRKCQ
[21] = target: Interleukin-1 receptor-associated kinase 4 (Homo sapiens, UniProt Q9NWZ3)
Interleukin-1 receptor-associated kinase 4, sequence (Q9NWZ3 whole entry): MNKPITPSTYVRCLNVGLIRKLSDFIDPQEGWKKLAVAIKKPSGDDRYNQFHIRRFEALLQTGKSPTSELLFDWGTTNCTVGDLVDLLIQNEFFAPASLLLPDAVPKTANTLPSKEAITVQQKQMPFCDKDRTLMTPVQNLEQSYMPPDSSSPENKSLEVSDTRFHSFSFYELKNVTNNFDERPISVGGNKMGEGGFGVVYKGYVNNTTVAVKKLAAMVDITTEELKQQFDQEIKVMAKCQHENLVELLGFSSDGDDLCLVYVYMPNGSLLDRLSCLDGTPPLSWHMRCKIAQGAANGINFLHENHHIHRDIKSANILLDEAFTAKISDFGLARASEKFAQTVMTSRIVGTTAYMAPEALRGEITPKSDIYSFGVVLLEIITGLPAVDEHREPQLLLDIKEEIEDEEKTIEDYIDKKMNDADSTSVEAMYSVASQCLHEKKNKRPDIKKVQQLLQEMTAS

[22] = target: Homeodomain-interacting protein kinase 2 (Homo sapiens, UniProt Q9H2X6);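 also: measured within a kinome-wide kinase profiling panel, HIPK2 being one panel member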
[23] = target: Mitogen-activated protein kinase kinase kinase kinase 4 (Homo sapiens, UniProt O95819)
[24] = target: MAP kinase-interacting serine/threonine-protein kinase 2 (Homo sapiens, UniProt Q9HBH9)
MAP kinase-interacting serine/threonine-protein kinase 2, sequence (Q9HBH9 whole entry): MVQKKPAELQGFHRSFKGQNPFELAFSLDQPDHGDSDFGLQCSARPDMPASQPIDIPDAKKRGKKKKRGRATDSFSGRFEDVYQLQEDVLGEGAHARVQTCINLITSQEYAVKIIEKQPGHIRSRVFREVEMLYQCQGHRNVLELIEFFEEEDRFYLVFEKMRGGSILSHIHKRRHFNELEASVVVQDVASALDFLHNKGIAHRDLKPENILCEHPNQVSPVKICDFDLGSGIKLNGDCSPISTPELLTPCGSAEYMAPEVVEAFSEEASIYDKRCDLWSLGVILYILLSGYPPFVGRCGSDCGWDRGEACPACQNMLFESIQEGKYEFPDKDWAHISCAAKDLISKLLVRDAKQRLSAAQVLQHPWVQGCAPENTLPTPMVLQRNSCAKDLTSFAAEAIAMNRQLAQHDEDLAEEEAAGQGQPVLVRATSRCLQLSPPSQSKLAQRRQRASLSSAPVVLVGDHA

[25] = target: Serine/threonine-protein kinase pim-1 (Homo sapiens, UniProt P11309)
Serine/threonine-protein kinase pim-1, sequence (P11309 whole entry): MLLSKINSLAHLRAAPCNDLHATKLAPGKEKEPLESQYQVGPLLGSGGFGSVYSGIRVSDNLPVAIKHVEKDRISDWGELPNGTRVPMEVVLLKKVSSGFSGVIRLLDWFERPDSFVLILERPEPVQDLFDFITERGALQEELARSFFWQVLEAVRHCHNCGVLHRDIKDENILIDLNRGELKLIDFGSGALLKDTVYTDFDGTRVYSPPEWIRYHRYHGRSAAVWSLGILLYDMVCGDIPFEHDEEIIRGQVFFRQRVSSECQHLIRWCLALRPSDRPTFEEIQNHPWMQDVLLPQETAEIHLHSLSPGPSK

[26] = target: Cyclin-dependent kinase 2 (Homo sapiens, UniProt P24941);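 also: CDK2 measured as one member of a broad kinome profiling panel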
[27] = target: Cell division cycle 7-related protein kinase (Homo sapiens, UniProt O00311);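 also: value obtained from a kinome-wide kinase panel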
[28] = target: DNA dC->dU-editing enzyme APOBEC-3A (Homo sapiens, UniProt P31941); test: SAR analysis of small molecule inhibitors of APOBEC3A DNA Deaminase via a fluorescence-based single-stranded DNA deaminase assay - Set 2.; conditions: read-out: IC50_Mean
[29] = target: DNA dC->dU-editing enzyme APOBEC-3G (Homo sapiens, UniProt Q9HC16); test: SAR analysis of small molecule inhibitors of APOBEC3G DNA Deaminase via a fluorescence-based single-stranded DNA deaminase assay - Set 2.; conditions: read-out: IC50_Mean
[30] = target: Sphingosine 1-phosphate receptor 5 (Homo sapiens, UniProt Q9H228); test: S1P5 receptor agonists, human, late-stage follow-up, counter-screen for S1P4 agonist project, cell-based, fluorescence, set 2 (AID 504867)
[31] = target: Sphingosine 1-phosphate receptor 1 (Homo sapiens, UniProt P21453); test: Late-stage fluorescence-based dose-response cell-based counterscreen assay to identify agonists of the Sphingosine 1-Phosphate Receptor 4 (S1P4): Sphingosine 1-Phosphate Receptor 1 (S1P1) agonist assay Set 2.
[32] = target: Sphingosine 1-phosphate receptor 3 (Homo sapiens, UniProt Q99500); test: Late-stage fluorescence-based dose-response cell-based counterscreen assay to identify agonists of the Sphingosine 1-Phosphate Receptor 4 (S1P4): Sphingosine 1-Phosphate Receptor 3 (S1P3) agonist assay Set 2.
Sphingosine 1-phosphate receptor 3, sequence (Q99500 whole entry): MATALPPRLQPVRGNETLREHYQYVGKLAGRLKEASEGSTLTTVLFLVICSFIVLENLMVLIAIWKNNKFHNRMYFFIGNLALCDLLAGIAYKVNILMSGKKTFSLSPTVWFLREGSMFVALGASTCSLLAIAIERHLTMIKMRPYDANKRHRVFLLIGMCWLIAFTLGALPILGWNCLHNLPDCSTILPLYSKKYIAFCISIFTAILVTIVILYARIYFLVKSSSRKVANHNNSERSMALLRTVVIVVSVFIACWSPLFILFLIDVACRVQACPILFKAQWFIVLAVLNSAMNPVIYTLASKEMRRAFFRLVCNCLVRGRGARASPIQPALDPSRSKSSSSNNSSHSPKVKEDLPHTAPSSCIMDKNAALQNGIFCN

[33] = target: Sphingosine 1-phosphate receptor 2 (Homo sapiens, UniProt O95136); test: S1P2 receptor agonists, human, late-stage follow-up, counter-screen for S1P4 agonist project, cell-based, fluorescence, set 2 (AID 504873)
[34] = target: T1, Apoptotic protease-activating factor 1 (Homo sapiens, UniProt O14727); test: SAR analysis of small molecule Activators of Apaf-1 in a Fluorescent assay - set 2.; conditions: read-out: EC50_Mean
T1 sequence (O14727 whole entry): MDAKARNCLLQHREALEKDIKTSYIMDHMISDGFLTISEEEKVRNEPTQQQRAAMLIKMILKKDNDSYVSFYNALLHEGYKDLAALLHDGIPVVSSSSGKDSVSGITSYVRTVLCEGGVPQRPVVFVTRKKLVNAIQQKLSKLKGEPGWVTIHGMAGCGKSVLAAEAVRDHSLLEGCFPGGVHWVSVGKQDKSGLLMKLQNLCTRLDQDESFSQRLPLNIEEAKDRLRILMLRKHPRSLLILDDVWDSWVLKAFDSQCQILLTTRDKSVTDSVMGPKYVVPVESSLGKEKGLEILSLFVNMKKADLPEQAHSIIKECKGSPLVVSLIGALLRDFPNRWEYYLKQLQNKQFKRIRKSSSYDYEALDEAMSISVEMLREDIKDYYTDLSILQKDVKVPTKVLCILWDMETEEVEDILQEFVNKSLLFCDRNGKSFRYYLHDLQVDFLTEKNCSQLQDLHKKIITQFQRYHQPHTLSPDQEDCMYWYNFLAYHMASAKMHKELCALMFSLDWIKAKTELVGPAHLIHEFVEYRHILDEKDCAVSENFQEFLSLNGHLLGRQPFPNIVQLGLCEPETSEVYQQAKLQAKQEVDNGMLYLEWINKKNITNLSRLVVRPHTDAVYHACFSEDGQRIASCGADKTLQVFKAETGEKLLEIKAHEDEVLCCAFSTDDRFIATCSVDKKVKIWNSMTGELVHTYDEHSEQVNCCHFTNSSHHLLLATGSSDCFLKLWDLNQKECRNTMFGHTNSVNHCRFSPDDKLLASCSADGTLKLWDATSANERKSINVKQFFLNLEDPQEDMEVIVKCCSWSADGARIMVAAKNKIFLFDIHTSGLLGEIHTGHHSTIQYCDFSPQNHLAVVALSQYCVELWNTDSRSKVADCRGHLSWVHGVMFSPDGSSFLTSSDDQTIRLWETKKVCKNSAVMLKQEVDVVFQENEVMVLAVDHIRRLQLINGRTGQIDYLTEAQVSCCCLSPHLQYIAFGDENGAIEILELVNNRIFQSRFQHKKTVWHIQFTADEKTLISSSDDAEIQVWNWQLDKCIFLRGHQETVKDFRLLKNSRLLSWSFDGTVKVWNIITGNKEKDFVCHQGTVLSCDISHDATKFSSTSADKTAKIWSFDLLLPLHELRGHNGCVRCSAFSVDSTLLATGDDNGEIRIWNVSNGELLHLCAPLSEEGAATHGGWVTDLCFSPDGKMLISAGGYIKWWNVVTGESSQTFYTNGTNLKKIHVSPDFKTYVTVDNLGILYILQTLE

[35] = SAR analysis of small molecule activators of Apaf-1 using a LZ-Caspase-9/Caspase-3 Fluorescent Selectivity assay - Set 2.; conditions: read-out: EC50_Mean

Ki [6]: 3.98 µM (active)
Ki [7]: > 63.1 µM (inactive)
Ki [8]: 3.98 µM (active)
Ki [9]: 50.1 µM (active)
Ki (Focal adhesion kinase 1): 100 µM (active)
Ki [10]: 63.1 µM (active)
Ki [12]: > 100 µM (inactive)
Ki [13]: > 100 µM (inactive)
Ki [14]: 39.8 µM (active)
Ki [15]: 50.1 µM (active)
Ki [16]: 31.6 µM (active)
Ki [17]: 31.6 µM (active)
Ki (Activated CDC42 kinase 1): 25.1 µM (active)
Ki [18]: > 100 µM (inactive)
Ki (Aurora kinase A): > 63.1 µM (inactive)
Ki [19]: 5.01 µM (active)
Ki [20]: 3.98 µM (active)
Structure (SMILES): O=C1CN2C(=NN1)COc1ccccc12
Ki [11]: 10 µM (active)

Ki [6]: 5.01 µM (active)
Ki [21]: > 10 µM (inactive)
Ki [22]: > 3.16 µM (inactive)
Ki [23]: 0.631 µM (active)
Ki [14]: > 7.94 µM (inactive)
Ki [24]: > 10 µM (inactive)
Ki [16]: 1.26 µM (active)
Ki [25]: 2 µM (active)
Ki [26]: > 7.94 µM (inactive)
Ki [27]: 0.0316 µM (active)
Structure (SMILES): O=C(O)c1ccccc1Nc1ccnc(NCc2cccc(O)c2)n1

EC50 [30]: 0.0367 µM (active)
EC50 [31]: 0.274 µM (active)
EC50 [32]: > 25 µM (inactive)
EC50 [33]: > 25 µM (inactive)
Structure (SMILES): CC/N=C1/S/C(=C/c2cc(C)n(-c3ccc(Cl)cc3F)c2C)C(=O)N1CC

Continued, compound first:

Structure (SMILES): O=C(Nc1ccccc1)OC1CCC2CC1CCC2OC(=O)Nc1ccccc1 (configuration not stated)
IC50 [1]: > 64.6 µM (inactive)
IC50 (Melanocortin receptor 4): 7.46 µM (active)

Structure (SMILES): O=c1c(O[C@H]2O[C@@H](CO)[C@H](O)[C@@H](O)[C@@H]2O)c(-c2ccc(O)cc2)oc2cc(O)cc(O)c12
AC50 [2]: 0.0155 µM (active)

Structure (SMILES): COc1ccc(Oc2c(Cl)cnn(-c3cc(C)cc(C)c3)c2=O)cc1
CC50 [3]: > 20 µM (inactive)
CC50 [4]: > 20 µM (inactive)
IC50 [5]: 3.9 µM (active)

Structure (SMILES): O=C(O)c1cc2nccc(-c3cccs3)n2n1
IC50 [28]: > 99 µM (inactive)
IC50 [29]: > 99 µM (inactive)

Structure (SMILES): CC(CN1CCCC1)C(=O)O (configuration not stated)
EC50 [34]: > 100 µM (inactive)
EC50 [35]: > 100 µM (inactive)
